Reference: US11072626B2, “Small molecule inhibitors of Galectin-3” (BRISTOL-MYERS SQUIBB COMPANY, priority 2017, dated 2021)

These compounds were tested against His-tagged recombinant human Gal-3 (hGal-3) (Homo sapiens (Human), UniProt P17931) (assay: Gal-3 HTRF assay (hGal-3 / B-ASF)). Conditions: 15 nM hGal-3, 15 nM B-ASF, three replicates, room temperature, read-out: hGal3 IC50.
Assay type: binding
Method: ASSAY BUFFER Composition: 25 mM HEPES, 100 mM NaCl, 0.005% Tween 20, 0.05% BSA prepared in sterile water (all reagents from Sigma)
Positive Control: 100% DMSO (1 μl)+His-tagged hGal-3 (20 μL)+B-ASF (20 μl)+Anti-His Terbium Antibody (5 μl)+Strep d2 Antibody (5 μl).
Negative Control: 100% DMSO (1 μl)+His-tagged hGal-3 (20μL)+Anti His Terbium Antibody (5 μl)+Strep d2 Aantibody (5 μl).
PROTOCOL: The Gal-3 assays were performed in 384 white Opti plates in three replicates at room temperature with gentle shaking at 250-300 rpm From the original stocks, […] working stock concentrations of His-tagged recombinant human Gal-3 (hGal-3) and that of B-ASF were prepared. From the working stock, 20 μl of hGal-3 (15 nM) and 20 μl B-ASF (15 nM) were added to the plates. In Negative Control, only hGal-3 was added. A concentration range of 50× working stocks were prepared for the compounds in 100% DMSO. Aliquots of 1 uL of the compounds were added to the wells and pre-incubated with 20 μl hGal-3 per well for 30 minutes Then 20 μl B-ASF were added and incubated for another 1 hour. To detect the signal, 5 μ(final conc. of 1.0 nM) terbium labelled Anti-His antibody was added and incubated for 30 min followed by adding 5 μ(final conc. of 20 nM) Streptavidin d2 and incubation for another 1 hour. The assay signal was detected using HTRF screen protocol (Excitation wavelength=340 nm, emission wavelength=615 nm/665 nm) on Envision 2104 Multilabel Reader. Data analysed using Toolset and Curve Master. Results are reported in the experimental section (IC50 in μM).

Sequence of His-tagged recombinant human Gal-3 (hGal-3) (P17931 whole entry): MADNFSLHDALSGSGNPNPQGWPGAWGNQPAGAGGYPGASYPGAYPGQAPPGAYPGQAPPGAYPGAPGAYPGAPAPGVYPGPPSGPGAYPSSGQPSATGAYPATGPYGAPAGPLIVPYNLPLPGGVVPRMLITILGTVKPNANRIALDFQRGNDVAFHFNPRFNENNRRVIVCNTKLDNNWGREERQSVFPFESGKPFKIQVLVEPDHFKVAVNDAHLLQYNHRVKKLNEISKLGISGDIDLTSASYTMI

IC50 [nM]	Compound
17	O=C(O)CO[C@@H]1[C@@H](n2cc(-c3cc(F)c(F)c(F)c3)nn2)[C@@H](O)[C@@H](CO)O[C@@H]1[S+]([O-])c1ccc(Cl)c(Cl)c1 (single isomer, unassigned) [18 (isomer-1)]
100	O=C(O)CO[C@@H]1[C@@H](n2cc(-c3cc(F)c(F)c(F)c3)nn2)[C@@H](O)[C@@H](CO)O[C@@H]1[S+]([O-])c1ccc(Cl)c(Cl)c1 (single isomer, unassigned) [18 (isomer-2)]
29	CO[C@@H]1[C@@H](n2cc(-c3cc(F)c(F)c(F)c3)nn2)[C@@H](O)[C@@H](CO)O[C@@H]1[S+]([O-])c1ccc(Cl)c(Cl)c1 (single isomer, unassigned) [Example 2 (isomer-1)]
155	CO[C@@H]1[C@@H](n2cc(-c3cc(F)c(F)c(F)c3)nn2)[C@@H](O)[C@@H](CO)O[C@@H]1[S+]([O-])c1ccc(Cl)c(Cl)c1 (single isomer, unassigned) [Example 2 (isomer-2)]
100	CCO[C@@H]1[C@@H](n2cc(-c3cc(F)c(F)c(F)c3)nn2)[C@@H](O)[C@@H](CO)O[C@@H]1[S+]([O-])c1ccc(Cl)c(Cl)c1 (single isomer, unassigned) [Example 9 (isomer-1)]
340	CCO[C@@H]1[C@@H](n2cc(-c3cc(F)c(F)c(F)c3)nn2)[C@@H](O)[C@@H](CO)O[C@@H]1[S+]([O-])c1ccc(Cl)c(Cl)c1 (single isomer, unassigned) [Example 9 (isomer-2)]
150	CC(O[C@@H]1[C@@H](n2cc(-c3cc(F)c(F)c(F)c3)nn2)[C@@H](O)[C@@H](CO)O[C@@H]1Sc1ccc(Cl)c(Cl)c1)C(=O)O (single isomer, unassigned) [Example 38 (isomer-1)]
40	CC(O[C@@H]1[C@@H](n2cc(-c3cc(F)c(F)c(F)c3)nn2)[C@@H](O)[C@@H](CO)O[C@@H]1Sc1ccc(Cl)c(Cl)c1)C(=O)O (single isomer, unassigned) [Example 38 (isomer-2)]
360	CC(O[C@@H]1[C@@H](n2cc(-c3cc(F)c(F)c(F)c3)nn2)[C@@H](O)[C@@H](CO)O[C@@H]1S(=O)(=O)c1ccc(Cl)c(Cl)c1)C(=O)O (single isomer, unassigned) [Example 39 (isomer-1)]
20	CC(O[C@@H]1[C@@H](n2cc(-c3cc(F)c(F)c(F)c3)nn2)[C@@H](O)[C@@H](CO)O[C@@H]1S(=O)(=O)c1ccc(Cl)c(Cl)c1)C(=O)O (single isomer, unassigned) [Example 39 (isomer-2)]
2200	OC[C@H]1O[C@H](Sc2ccc(Cl)c(Cl)c2)[C@H](F)[C@@H](n2cc(-c3cc(F)c(F)c(F)c3)nn2)[C@H]1O (single isomer, unassigned) [Example 62 (isomer-1)]
10000	OC[C@H]1O[C@@H](Sc2ccc(Cl)c(Cl)c2)[C@H](F)[C@@H](n2cc(-c3cc(F)c(F)c(F)c3)nn2)[C@H]1O (single isomer, unassigned) [Example 62 (isomer-2)]
700	CO[C@@H]1[C@@H](n2cc(-c3cc(F)c(F)c(F)c3)nn2)[C@@H](O)[C@@H](CO)O[C@@H]1Sc1ccc(Cl)c(Cl)c1 [Example 1, (2R,3R,4S,5R,6R)-6-((3,4-dichlorophenyl)thio)-2-(hydroxymethyl)-5-methoxy-4-(4-(3,4,5-trifluorophenyl)-1H-1,2,3-triazol-1-yl)tetrahydro-2H-pyran-3-ol]
112	CO[C@@H]1[C@@H](n2cc(-c3cc(F)c(F)c(F)c3)nn2)[C@@H](O)[C@@H](CO)O[C@@H]1S(=O)(=O)c1ccc(Cl)c(Cl)c1 [Example 3, (2R,3R,4S,5R,6R)-6-((3,4-dichlorophenyl)sulfonyl)-2-(hydroxymethyl)-5-methoxy-4-(4-(3,4,5-trifluorophenyl)-1H-1,2,3-triazol-1-yl)tetrahydro-2H-pyran-3-ol]
1050	CCO[C@@H]1[C@@H](n2cc(-c3cc(F)c(F)c(F)c3)nn2)[C@@H](O)[C@@H](CO)O[C@@H]1Sc1ccc(Cl)c(Cl)c1 [Example 4, (2R,3R,4S,5R,6R)-6-((3,4-dichlorophenyl)thio)-5-ethoxy-2-(hydroxymethyl)-4-(4-(3,4,5-trifluorophenyl)-1H-1,2,3-triazol-1-yl)tetrahydro-2H-pyran-3-ol]
200	CCO[C@@H]1[C@@H](n2cc(-c3cc(F)c(F)c(F)c3)nn2)[C@@H](O)[C@@H](CO)O[C@@H]1S(=O)(=O)c1ccc(Cl)c(Cl)c1 [Example 10, (2R,3R,4S,5R,6R)-6-((3,4-dichlorophenyl)sulfonyl)-5-ethoxy-2-(hydroxymethyl)-4-(4-(3,4,5-trifluorophenyl)-1H-1,2,3-triazol-1-yl)tetrahydro-2H-pyran-3-ol]
56	COCCO[C@@H]1[C@@H](n2cc(-c3cc(F)c(F)c(F)c3)nn2)[C@@H](O)[C@@H](CO)O[C@@H]1[S@+]([O-])c1ccc(Cl)c(Cl)c1 [Example 11, (2R,3R,4S,5R,6R)-6-((R)-(3,4-dichlorophenyl)sulfinyl)-2-(hydroxymethyl)-5-(2-methoxyethoxy)-4-(4-(3,4,5-trifluorophenyl)-1H-1,2,3-triazol-1-yl)tetrahydro-2H-pyran-3-ol]
130	COCCO[C@@H]1[C@@H](n2cc(-c3cc(F)c(F)c(F)c3)nn2)[C@@H](O)[C@@H](CO)O[C@@H]1S(=O)(=O)c1ccc(Cl)c(Cl)c1 [Example 12, (2R,3R,4S,5R,6R)-6-((3,4-dichlorophenyl)sulfonyl)-2-(hydroxymethyl)-5-(2-methoxyethoxy)-4-(4-(3,4,5-trifluorophenyl)-1H-1,2,3-triazol-1-yl)tetrahydro-2H-pyran-3-ol]
50	[O-][N+]1(CCO[C@@H]2[C@@H](n3cc(-c4cc(F)c(F)c(F)c4)nn3)[C@@H](O)[C@@H](CO)O[C@@H]2Sc2ccc(Cl)c(Cl)c2)CCOCC1 [Example 13, 4-(2-(((2R,3R,4S,5R,6R)-2-((3,4-dichlorophenyl)thio)-5-hydroxy-6-(hydroxymethyl)-4-(4-(3,4,5-trifluorophenyl)-1H-1,2,3-triazol-1-yl)tetrahydro-2H-pyran-3-yl)oxy)ethyl)morpholine 4-oxide]
380	CCOC(=O)CO[C@@H]1[C@@H](n2cc(-c3cc(F)c(F)c(F)c3)nn2)[C@@H](O)[C@@H](CO)O[C@@H]1Sc1ccc(Cl)c(Cl)c1 [Example 14, ethyl 2-(((2R,3R,4S,5R,6R)-2-((3,4-dichlorophenyl)thio)-5-hydroxy-6-(hydroxymethyl)-4-(4-(3,4,5-trifluorophenyl)-1H-1,2,3-triazol-1-yl)tetrahydro-2H-pyran-3-yl)oxy)acetate]
230	N#CCO[C@@H]1[C@@H](n2cc(-c3cc(F)c(F)c(F)c3)nn2)[C@@H](O)[C@@H](CO)O[C@@H]1Sc1ccc(Cl)c(Cl)c1 [Example 15, 2-(((2R,3R,4S,5R,6R)-2-((3,4-dichlorophenyl)thio)-5-hydroxy-6-(hydroxymethyl)-4-(4-(3,4,5-trifluorophenyl)-1H-1,2,3-triazol-1-yl)tetrahydro-2H-pyran-3-yl)oxy)acetonitrile]
25	CCOC(=O)CO[C@@H]1[C@@H](n2cc(-c3cc(F)c(F)c(F)c3)nn2)[C@@H](O)[C@@H](CO)O[C@@H]1[S@@+]([O-])c1ccc(Cl)c(Cl)c1 [Example 16, ethyl 2-(((2R,3R,4S,5R,6R)-2-((S)-(3,4-dichlorophenyl)sulfinyl)-5-hydroxy-6-(hydroxymethyl)-4-(4-(3,4,5-trifluorophenyl)-1H-1,2,3-triazol-1-yl)tetrahydro-2H-pyran-3-yl)oxy)acetate]
